In one assay the test system is athymic nude mice. Nature of the assay: DIVAA with angioreactors, Example 2 (peptides in matrigel). The format is in vivo. The method, then: (§1) Analysis and quantitation of angiogenesis was done using DIVAA as previously described (Martinez et al., J. Natl. Cancer Inst., 21; 94(16):1226-37, 2002; Guedez et al., Am. J. Pathol. 162, 1431-1439, 2003). Briefly, 10 mm long surgical-grade silicone tubes with only one end open (angioreactors) were filled with 20 μl of matrigel alone or mixed with AM, bFGF, VEGF, PAMP, and/or PAMP(12-20) at the indicated concentrations. Human lung cancer cell lines (see below) were also premixed with matrigel alone or in combination with PAMP(12-20) at 10,000 cells per angioreactor. After the matrigel solidified, the angioreactors were implanted into the dorsal flanks of anesthetized athymic nude mice (NCI colony). After eleven days, the mice were injected intravenously with 25 mg/ml FITC-dextran (100 μl/mouse, Sigma) 20 minutes before removing the angioreactors. Photographs of the implants were taken for visual examination of angiogenic response. Quantitation of neovascularization in the angioreactors was determined as the amount of fluorescence trapped in the implants and was measured in a HP Spectrophotometer (Perkin Elmer).
To further characterize this observation, an […] assay was employed that allows for more precise quantitation of angiogenic properties: the directed […] angiogenesis assay or DIVAA (Martinez et al., J. Natl. Cancer Inst., 21; 94(16): 1226-37, 2002; Guédez et al., Am. J. Pathol. 162, 1431-1439, 2003). The assay involves implanting small silicone capsules carrying the test substances under the skin of nude mice. After eleven days, the mice are injected with a specific amount of FITC-dextran, and the volume of blood circulating through the implant is quantified by measuring the fluorescence in the capsule. In addition, the new blood vessels growing into the silicone tube can be seen directly by transparency (FIG. 4A-F). […] The extent of the angiogenic response can be seen clearly when this response is compared with the negative control (FIG. 4A). The angiogenic response elicited by PAMP was dose-dependent (FIG. 4C-G). When compared to AM and VEGF responses at equimolar concentrations, a clear difference was observed.

The test system of assay [1] is Human dermal microvascular endothelial cells. Nature of the assay: Calcium measurements (ATP-induced calcium flux). It is filed as cell-based. The conditions noted are these: 100 nM PAMP(12-20) with 10 nM PAMP and 1 mM ATP. How it is done:
Human dermal microvascular endothelial cells were obtained from Cell Applications, Inc. and cultured in 96-well plates at 1.0×10^5 cells per well. The cells were loaded for 60 minutes at room temperature with the fluorescent dye FLIPR (Molecular Devices) and then transferred to the FlexStation II (Molecular Devices) for analysis. The test compounds were prepared in another plate at a concentration of 5× and were added to the proper wells by the robotic arm of the FlexStation II. Fluorescence was measured every five seconds in each well and recorded. One mM ATP (Sigma) was used as a calcium agonist (Lau et al., Life Sci. 73, 20 19-2028, 2003).
(A change in cytosolic calcium serves as a functional read-out for many receptors and channels.)

A further assay relates to H1299. The assay is described as follows: DIVAA, angiogenesis induced by tumor cells embedded in matrigel. It is filed as in vivo, human. The conditions noted are these: H1299, 10,000 cells per angioreactor, 100 nM PAMP(12-20). How it is done:
as §1
(§2) The human cancer cell lines used, A549 and H1299, were obtained from the American Tissue Culture Collection (ATCC) and fed with RPMI164O containing 10% fetal bovine serum (Invitrogen). […]

The subject of a further assay is A549. The assay is described as above. The format is in vivo, human. Conditions: A549, 10,000 cells per angioreactor, 100 nM PAMP(12-20). How it is done:
as §1, §2

The next assay has as its system A549 tumors. The assay is described as follows: Xenograft experiment. The format is in vivo, athymic nude mice. The method, then:
Twenty female athymic nude mice from the NIH colony in Frederick (MD) were injected subcutaneously with 1.0×10^7 A549 cells/mouse. Two weeks later, all the mice had developed palpable tumors under the skin and at this time they were divided in two groups. Three times a week, each individual tumor was measured (length, height, thickness) and every mouse received an intratumoral injection, according to their group. Group 1 (control) received 100 μl PBS. […] When the tumor burden became unbearable, the mice were sacrificed.

Take “proadrenomedullin N-terminal 20 peptide (12-20) (KWNKWALSR; listed as Homo sapiens) [PAMP(12-20), peptide which comprises only amino acids 12-20 of PAMP]”: the figures for the “inhibition of the angiogenic response elicited by PAMP” value in the assay with athymic nude mice (1 nM PAMP with 100 nM PAMP(12-20) (hundred-fold excess)) and in the assay on athymic nude mice (1 nM full-length PAMP with increasing doses of PAMP(12-20)) were “inhibited angiogenesis to the basal levels” and “dose-dependent inhibition”, respectively. Besides, the “effect on basal angiogenesis” value in the assay with athymic nude mice (PAMP(12-20) by itself) is listed as “did not modify basal angiogenesis”. Moreover, in assay [1], the “reversal of PAMP block of ATP-induced calcium response” value is “initial response was recovered”. Further, the “inhibition of tumor cell-induced angiogenic response” value in the assay with H1299 and in the assay with A549 was “completely blocked” in each case. Moreover, the “treatment time after which statistical differences in tumor size were observed” value in the assay on A549 tumors (1 mM PAMP(12-20) versus PBS, ten mice per group) is listed as “nine”. Further, the “tumor growth versus PBS control” value in the assay on A549 tumors (1 mM PAMP(12-20), 100 μl intratumoral injection three times a week) is “slower rate of tumor growth”.

The values above are taken from US7862815B2, “Methods for inhibiting angiogenesis with inhibitors of proadrenomedullin N-terminal 20 peptide (PAMP)” (The United States of America as represented by the …, priority 2002, dated 2011).
